Data: ChEMBL document CHEMBL1201862, “PubChem BioAssay data set” (2004)
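Protocol summary: plate cells (96-well), add compound at 5 concentrations, incubate 48 h, interpolate endpoints linearly. Abbreviation: GI50, concentration required for 50% inhibition of growth.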 Active and inactive are the calls of the source. Cut-off read from the data, not from the text of the source: active = GI50 up to about 1.1 µM and inactive = higher.

Key:
Assay in all cases: inhibition of tumour cell growth, NCI panel, 48 h
[1] = tested on: A498
[2] = tested on: COLO 205
[3] = tested on: DU-145
[4] = tested on: HCT-116
[5] = tested on: Hs-578T
[6] = tested on: IGROV-1
[7] = tested on: KM12
[8] = tested on: MDA-MB-435
[9] = tested on: MOLT-4
[10] = tested on: Malme-3M
[11] = tested on: OVCAR-8
[12] = tested on: SK-OV-3
[13] = tested on: SN12C
[14] = tested on: SNB-19
[15] = tested on: SW-620
[16] = tested on: CAKI-1
[17] = tested on: RXF 393
[18] = tested on: HCC 2998
[19] = tested on: NCI-H460
[20] = tested on: SF-539

SMILES: COc1ccc(/C=C2\NC(=S)N(CN3CCCCC3)C2=O)cc1
- GI50 [1]: 51.9 µM (inactive)
- GI50 [2]: 35.2 µM (inactive)
- GI50 [3]: 71 µM (inactive)
- GI50 [4]: 34.6 µM (inactive)
- GI50 [5]: 17.8 µM (inactive)
- GI50 [6]: 44.2 µM (inactive)
- GI50 [7]: 73.1 µM (inactive)
- GI50 [8]: 52.7 µM (inactive)
- GI50 [9]: 28.6 µM (inactive)
- GI50 [10]: 30.3 µM (inactive)
- GI50 [11]: 15.4 µM (inactive)
- GI50 [12]: > 100 µM (inactive)
- GI50 [13]: > 100 µM (inactive)
- GI50 [14]: 37 µM (inactive)
- GI50 [15]: 29.3 µM (inactive)

SMILES: O=S(=O)(O)c1cc(/N=N/c2c(O)ccc3ccccc23)ccc1/C=C/c1ccc(/N=N/c2c(O)ccc3ccccc23)cc1S(=O)(=O)O
- GI50 [16]: > 100 µM (inactive)
- GI50 [2]: > 100 µM (inactive)
- GI50 [4]: > 100 µM (inactive)
- GI50 [5]: > 100 µM (inactive)
- GI50 [6]: 70.3 µM (inactive)
- GI50 [7]: > 100 µM (inactive)
- GI50 [8]: > 100 µM (inactive)
- GI50 [10]: 26.9 µM (inactive)
- GI50 [11]: > 100 µM (inactive)
- GI50 [17]: > 100 µM (inactive)
- GI50 [12]: > 100 µM (inactive)
- GI50 [13]: > 100 µM (inactive)
- GI50 [14]: > 100 µM (inactive)
- GI50 [15]: > 100 µM (inactive)

SMILES: CCNc1cc2c(cc1O)CC[C@@H]1[C@@H]2CC[C@]2(C)[C@@H](O)CC[C@@H]12
- GI50 [1]: 1.7 µM (inactive)
- GI50 [16]: 13.5 µM (inactive)
- GI50 [2]: 14.4 µM (inactive)
- GI50 [18]: 1.02 µM (active)
- GI50 [5]: 3.62 µM (inactive)
- GI50 [6]: 15.5 µM (inactive)
- GI50 [7]: 9.04 µM (inactive)
- GI50 [9]: 3.13 µM (inactive)
- GI50 [10]: 3.75 µM (inactive)
- GI50 [19]: 0.489 µM (active)
- GI50 [11]: 11.7 µM (inactive)
- GI50 [17]: 3.53 µM (inactive)
- GI50 [13]: 15.3 µM (inactive)
- GI50 [14]: 0.82 µM (active)
- GI50 [15]: 2.82 µM (inactive)

SMILES: CNC(=S)N/N=C(\C)c1cc(OC)c(OC)cc1O
- GI50 [1]: > 100 µM (inactive)
- GI50 [16]: > 100 µM (inactive)
- GI50 [2]: > 100 µM (inactive)
- GI50 [3]: > 100 µM (inactive)
- GI50 [18]: > 100 µM (inactive)
- GI50 [4]: > 100 µM (inactive)
- GI50 [6]: > 100 µM (inactive)
- GI50 [7]: > 100 µM (inactive)
- GI50 [8]: > 100 µM (inactive)
- GI50 [9]: > 100 µM (inactive)
- GI50 [10]: > 100 µM (inactive)
- GI50 [19]: > 100 µM (inactive)
- GI50 [11]: > 100 µM (inactive)
- GI50 [17]: > 100 µM (inactive)
- GI50 [20]: > 100 µM (inactive)
- GI50 [12]: > 100 µM (inactive)
- GI50 [13]: > 100 µM (inactive)
- GI50 [14]: > 100 µM (inactive)
- GI50 [15]: > 100 µM (inactive)

SMILES: CCC1CCN=C(Cn2cc(C)c(=O)[nH]c2=O)N1 (stereo not drawn)
- GI50 [1]: > 100 µM (inactive)
- GI50 [2]: > 100 µM (inactive)
- GI50 [3]: > 100 µM (inactive)
- GI50 [18]: > 100 µM (inactive)
- GI50 [4]: > 100 µM (inactive)
- GI50 [5]: > 100 µM (inactive)
- GI50 [6]: > 100 µM (inactive)
- GI50 [10]: > 100 µM (inactive)
- GI50 [19]: > 100 µM (inactive)
- GI50 [11]: > 100 µM (inactive)
- GI50 [17]: > 100 µM (inactive)
- GI50 [12]: > 100 µM (inactive)
- GI50 [13]: > 100 µM (inactive)
- GI50 [14]: > 100 µM (inactive)
- GI50 [15]: > 100 µM (inactive)

SMILES: CCCSc1ccc2[nH]c(N3C(=O)/C(=C/c4ccco4)N=C3c3ccccc3)cc2c1
- GI50 [1]: 15.4 µM (inactive)
- GI50 [16]: 34.7 µM (inactive)
- GI50 [2]: 10.4 µM (inactive)
- GI50 [3]: > 50 µM (inactive)
- GI50 [18]: 18.3 µM (inactive)
- GI50 [4]: 21.8 µM (inactive)
- GI50 [6]: 40.1 µM (inactive)
- GI50 [7]: 17.7 µM (inactive)
- GI50 [8]: 8.71 µM (inactive)
- GI50 [9]: 17.1 µM (inactive)
- GI50 [10]: > 50 µM (inactive)
- GI50 [19]: 18.3 µM (inactive)
- GI50 [11]: > 50 µM (inactive)
- GI50 [17]: 22.9 µM (inactive)
- GI50 [20]: 9.42 µM (inactive)
- GI50 [13]: 35 µM (inactive)
- GI50 [14]: > 50 µM (inactive)
- GI50 [15]: 20.8 µM (inactive)

SMILES: CC[C@@H](C)[C@@H]1NC(=O)C(C(C)=O)=C1O
- GI50 [1]: 24.4 µM (inactive)
- GI50 [16]: 0.456 µM (active)
- GI50 [2]: 17.9 µM (inactive)
- GI50 [18]: 30.8 µM (inactive)
- GI50 [4]: 18.7 µM (inactive)
- GI50 [6]: 25.6 µM (inactive)
- GI50 [7]: 15.6 µM (inactive)
- GI50 [9]: 11.4 µM (inactive)
- GI50 [10]: 25.1 µM (inactive)
- GI50 [19]: 15.3 µM (inactive)
- GI50 [11]: 24.9 µM (inactive)
- GI50 [17]: 26.7 µM (inactive)
- GI50 [20]: 23.1 µM (inactive)
- GI50 [12]: 23.2 µM (inactive)
- GI50 [13]: 25.1 µM (inactive)
- GI50 [14]: 0.297 µM (active)
- GI50 [15]: 24.2 µM (inactive)
